Experimental findings from patent publication US9212130B2, “Heterocyclic derivative and pharmaceutical composition comprising the same” (SHIONOGI & CO., LTD., priority 2010, dated 2015) are described below.

The target in one data set is human P2X3 receptor (Homo sapiens (Human), UniProt P56373). Nature of the data set: Evaluation of human P2X3 receptor inhibitory activity (ATP-induced Fluo-3 fluorescence, FDSS 3000). In kind it is cell-based. Particulars: C6BU-1 cell transfected with human P2X3 receptor gene. In outline:
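Human P2X3 inhibition read as ATP-evoked Fluo-3 calcium fluorescence; compound preincubated, then 50 nM ATP solution (concentration as dispensed) added and fluorescence followed 3 min. Response taken as peak-to-baseline fluorescence ratio per well; IC50 derived from concentration–response.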

Data set [1] can be described thus: Bioavailability (BA) test. In kind it is in vivo. The conditions noted are these: plasma; Mice or SD rats; oral 0.3 to 30 mg/kg vs intravenous 0.5 to 10 mg/kg; from AUCs. The method, then: Materials and Methods for Experiment of BA
• (1) Animals: Mice or SD rats were used • (2) Breeding conditions: Mice or SD rats were allowed to freely take solid food and sterilized tap water. • (3) Dose and grouping: orally or intravenously administered at a predetermined dose; grouping was as follows (Dose depends on the compound) Oral administration: 0.3 to 30 mg/kg (n=2 to 3) Intravenous administration: 0.5 to 10 mg/kg (n=2 to 3) • (4) Preparation of dosing solution: for oral administration, in a solution or a suspension state; for intravenous administration, in a solubilized state • (5) Administration method: in oral administration, forcedly administer into ventriculus with oral probe; in intravenous administration, administer from caudal vein with a needle-equipped syringe • (6) Evaluation items: blood was collected over time, and the plasma concentration of drug was measured by LC/MS/MS • (7) Statistical analysis: regarding the transition of the plasma concentration of the present compound, the area under the plasma concentration-time curve (AUC) was calculated by non-linear least squares program WinNonlin (Registered trade name), and the bioavailability (BA) was calculated from the AUCs of the oral administration group and intravenous administration group

For another data set, the target named is CYP2C9 (Homo sapiens (Human), UniProt P11712). Nature of the data set: CYP inhibition test, tolbutamide methyl-hydroxylation. Particulars: pooled human hepatic microsome; 100 μmol/L tolbutamide; given as 'five kinds'. In kind it is in vitro ADME. On the procedure:
(§1) Using commercially available pooled human hepatic microsome, and employing, as markers, 7-ethoxyresorufin O-deethylation (CYP1A2), tolbutamide methyl-hydroxylation (CYP2C9), mephenyloin 4′-hydroxylation (CYP2C19), dextromethorphan O-demethylation (CYP2D6), and terfenedine hydroxylation as typical substrate metabolism reactions of human main five ([…] enzyme forms (CYP1A2, 2C9, 2C19, 2D6, 3A4), an inhibitory degree of each metabolite production amount by a test compound was assessed.
(§2) The reaction conditions were as follows: substrate, 0.5 μmol/L ethoxyresorufin (CYP1A2), 100 μmol/L tolbutamide (CYP2C9), 50 μmol/L S-mephenitoin (CYP2C19), 5 μmol/L dextromethorphan (CYP2D6), 1 μmol/L terfenedine (CYP3A4); reaction time, 15 minutes; reaction temperature, 37° C.; enzyme, pooled human hepatic microsome 0.2 mg protein/mL; test drug concentration, 1.0. 5.0, 10, 20 μmol/L (four points).
(§3) Each five kinds of substrates, human hepatic microsome, or a test drug in 50 mmol/L Hepes buffer as a reaction solution was added to a 96-well plate at the composition as described above. NADPH, as a cofactor was added to initiate metabolism reactions as markers and, after the incubation at 37° C. for 15 minutes, a methanol/acetonitrile=1/1 (v/v) solution was added to stop the reaction. After the centrifugation at 3000 rpm for 15 minutes, resorufin (CYP1A2 metabolite) in the supernatant was quantified by a fluorescent multilabel counter and tributamide hydroxide (CYP2CP metabolite), mephenyloin 4′ hydroxide (CYP2C19 metabolite), […], and terfenadine alcohol (CYP3A4 metabolite) were quantified by LC/MS/MS.
(§4) Addition of only DMSO being a solvent dissolving a drug to a reaction system was adopted as a control (100%), remaining activity (%) was calculated at each concentration of a test drug added as the solution and IC50 was calculated by reverse presumption by a logistic model using a concentration and an inhibition rate.

Data set [2] in a line: Metabolism stability test (pooled human hepatic microsomes). In kind it is in vitro ADME. The conditions noted are these: human liver microsomes 0.5 mg protein/mL; 37° C., 30 minutes; 1 mmol/L NADPH; compound concentration 0.5 μmol/L. The method, then:
Using commercially available pooled human hepatic microsomes, a test compound was reacted for a constant time, a remaining rate was calculated by comparing a reacted sample and an unreacted sample, thereby, a degree of metabolism in liver was assessed.
A reaction was performed (oxidative reaction) at 37° C. for 0 minute or 30 minutes in the presence of 1 mmol/L NADPH in 0.2 mL of a buffer (50 mmol/L tris-HCl pH 7.4, 150 mmol/L potassium chloride, 10 mmol/L magnesium chloride) containing 0.5 mg protein/mL of human liver microsomes. After the reaction, 50 μL of the reaction solution was added to 100 μL of a methanol/acetonitrile 1/1 (v/v), mixed and centrifuged at 3000 rpm for 15 minutes. The test compound in the supernatant was quantified by LC/MS/MS, and a remaining amount of the test compound after the reaction was calculated, letting a compound amount at 0 minute reaction time to be 100%.
A general note: Microsomes from liver hold many membrane-bound enzymes, among them those of drug oxidation.

Data set [3] addresses T1, CYP3A4 (Homo sapiens (Human), UniProt P08684). Kind of data set: CYP inhibition test, terfenedine hydroxylation. The conditions noted are these: pooled human hepatic microsome; 1 μmol/L terfenedine; given as 'five kinds'. The format is in vitro ADME. On the procedure:
as §1, §2, §3, §4

The target of a further data set is CYP1A2 (Homo sapiens (Human), UniProt P05177). Nature of the data set: CYP inhibition test, 7-ethoxyresorufin O-deethylation. Particulars: pooled human hepatic microsome; 0.5 μmol/L ethoxyresorufin; given as 'five kinds'. In kind it is in vitro ADME. The method, then: as §1, §2, §3, §4
The next data set deals with CYP2D6 (Homo sapiens (Human), UniProt P10635). Nature of the data set: CYP inhibition test, dextromethorphan O-demethylation. The conditions noted are these: pooled human hepatic microsome; 5 μmol/L dextromethorphan; given as 'five kinds'. The format is in vitro ADME. On the procedure:
as §1, §2, §3, §4

The target of another data set is CYP2C19 (Homo sapiens (Human), UniProt P33261). Nature of the data set: CYP inhibition test, mephenyloin 4'-hydroxylation. In kind it is in vitro ADME. Particulars: pooled human hepatic microsome; 50 μmol/L S-mephenitoin; given as 'five kinds'. On the procedure:
as §1, §2, §3, §4

A further data set is described as follows: Solubility test. In kind it is physicochemical. Particulars: artificial intestinal juice (phosphate buffer) with 1% DMSO, 25 °C, other biorelevant, kinetic from dmso stock, artificial intestinal juice in pH 8.8, 25 degrees Celsius for 16 hours. The method, then: The solubility of a compound was determined under a condition in which 1% DMSO was added. 10 mmol/L compound solution was prepared using DMSO, and then 6 μL of the compound solution was added to 594 μL of artificial intestinal juice in […] (to 250 mL of 0.2 mol/L potassium dihydrogen phosphate reagent solution was added 118 mL of 0.2 mol/L NaOH reagent solution and water to provide a final volume of 1000 mL). After standing at 25 degrees Celsius for 16 hours, the mixed solution was filtrated with suction. The filtrate was diluted twice with methanol/water (1/1) and then a concentration in the filtration was measured with HPLC or LC/MS/MS by the absolute calibration method.

The target of data set [4] is T1, CYP3A4. Kind of data set: CYP3A4 fluorescent MBI test. In kind it is in vitro ADME. The conditions noted are these: pre-reaction time 0 or 30 minutes; substrate 7-BFC; CYP3A4 expressed in Escherichia coli. The method, then: The CYP3A4 fluorescent MBI test is a test of investigating enhancement of CYP3A4 inhibition of a compound by a metabolism reaction, and the test is performed using, as CYP3A4 enzyme expressed in Escherichia coli and employing, as an index, a reaction in which 7-benzyloxytrifluoromethylchmarin (BFC) is debenzylated by the CYP3A4 enzyme to produce a metabolite, 7-hydroxytrifluoromethylchmarin (HFC) emitting fluorescent light.
The reaction conditions were as follows: substrate, 5.6 μmol/L 7-BFC; pre-reaction time, 0 or 30 minutes; reaction time, 15 minutes; reaction temperature, 25° C.
An enzyme in a K-Pi buffer (pH 7.4) and a test drug solution as a pre-reaction solution were added to a 96-well plate at the composition of the pre-reaction, a part of it was transferred to another 96-well plate so that it was 1/10 diluted by a substrate in a K-Pi buffer, NADPH as a co-factor was added to initiate a reaction as an index (without preincubation) and, after a predetermined time of a reaction, acetonitrile: 0.5 mol/L Tris (trishydroxyaminomethane)=4:1 was added to stop the reaction. In addition, NADPH was added to a remaining preincubation solution to initiate a preincubation (with preincubation) and, after a predetermined time of a preincubation, a part was transferred to another plate so that it was 1/10 diluted with a substrate and a K-Pi buffer to initiate a reaction as an index, After a predetermined time of a reaction, acetonitrile: 0.5 mol/L Tris (trishydroxyaminomethane)=4:1 was added to stop the reaction. For the plate on which each index reaction had been performed, a fluorescent value of 7-HFC which is a metabolite was measured with a fluorescent plate reader. (Ex=420 nm, Em=535 nm).
Addition of only DMSO which is a solvent dissolving a drug to a reaction system was adopted as a control (100%), remaining activity (%) was calculated at each concentration of a test drug added as the solution, and IC50 was calculated by reverse-presumption by a logistic model using a concentration and an inhibition rate. When a difference between IC50 values is 5 or more, this was defined as (+) and, when the difference is 3 μmol/L or less, this was defined as (−).

Chain of human P2X3 receptor (P56373 whole entry): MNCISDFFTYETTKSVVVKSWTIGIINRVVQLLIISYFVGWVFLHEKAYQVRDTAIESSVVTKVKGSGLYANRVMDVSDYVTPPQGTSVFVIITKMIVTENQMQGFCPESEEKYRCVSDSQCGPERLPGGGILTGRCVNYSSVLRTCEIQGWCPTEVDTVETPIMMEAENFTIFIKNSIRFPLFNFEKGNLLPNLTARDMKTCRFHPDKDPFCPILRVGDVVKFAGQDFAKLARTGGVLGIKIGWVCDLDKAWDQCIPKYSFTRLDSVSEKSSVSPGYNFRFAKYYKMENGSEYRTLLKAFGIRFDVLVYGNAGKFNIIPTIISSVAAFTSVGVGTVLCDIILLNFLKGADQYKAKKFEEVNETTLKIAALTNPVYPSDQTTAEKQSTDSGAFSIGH
Chain of CYP2C9 (P11712 whole entry): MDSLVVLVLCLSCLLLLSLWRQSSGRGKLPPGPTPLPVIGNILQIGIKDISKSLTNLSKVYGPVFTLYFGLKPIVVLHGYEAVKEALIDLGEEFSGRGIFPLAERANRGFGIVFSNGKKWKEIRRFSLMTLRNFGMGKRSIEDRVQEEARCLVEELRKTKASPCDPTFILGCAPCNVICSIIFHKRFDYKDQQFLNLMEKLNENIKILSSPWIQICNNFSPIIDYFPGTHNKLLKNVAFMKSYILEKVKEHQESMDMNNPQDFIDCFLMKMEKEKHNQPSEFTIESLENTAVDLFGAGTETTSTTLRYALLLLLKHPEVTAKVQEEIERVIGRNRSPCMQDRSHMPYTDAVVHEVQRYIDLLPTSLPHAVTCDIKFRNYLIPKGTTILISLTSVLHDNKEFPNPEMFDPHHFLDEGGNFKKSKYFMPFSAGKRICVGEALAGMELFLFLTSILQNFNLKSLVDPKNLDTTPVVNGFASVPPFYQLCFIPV
T1 sequence (P08684 whole entry): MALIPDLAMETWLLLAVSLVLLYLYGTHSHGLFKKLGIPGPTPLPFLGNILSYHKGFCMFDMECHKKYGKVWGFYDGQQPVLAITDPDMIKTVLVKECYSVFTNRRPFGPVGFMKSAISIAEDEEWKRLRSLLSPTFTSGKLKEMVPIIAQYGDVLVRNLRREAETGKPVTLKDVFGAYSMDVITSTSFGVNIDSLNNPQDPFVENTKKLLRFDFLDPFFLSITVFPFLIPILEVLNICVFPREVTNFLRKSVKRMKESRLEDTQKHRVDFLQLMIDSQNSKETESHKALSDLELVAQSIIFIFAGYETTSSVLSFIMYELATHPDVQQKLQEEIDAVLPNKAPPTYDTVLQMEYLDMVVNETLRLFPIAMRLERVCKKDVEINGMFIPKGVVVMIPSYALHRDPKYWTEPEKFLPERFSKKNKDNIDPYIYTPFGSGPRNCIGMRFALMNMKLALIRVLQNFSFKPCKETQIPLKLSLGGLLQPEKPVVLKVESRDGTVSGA
Chain of CYP1A2 (P05177 whole entry): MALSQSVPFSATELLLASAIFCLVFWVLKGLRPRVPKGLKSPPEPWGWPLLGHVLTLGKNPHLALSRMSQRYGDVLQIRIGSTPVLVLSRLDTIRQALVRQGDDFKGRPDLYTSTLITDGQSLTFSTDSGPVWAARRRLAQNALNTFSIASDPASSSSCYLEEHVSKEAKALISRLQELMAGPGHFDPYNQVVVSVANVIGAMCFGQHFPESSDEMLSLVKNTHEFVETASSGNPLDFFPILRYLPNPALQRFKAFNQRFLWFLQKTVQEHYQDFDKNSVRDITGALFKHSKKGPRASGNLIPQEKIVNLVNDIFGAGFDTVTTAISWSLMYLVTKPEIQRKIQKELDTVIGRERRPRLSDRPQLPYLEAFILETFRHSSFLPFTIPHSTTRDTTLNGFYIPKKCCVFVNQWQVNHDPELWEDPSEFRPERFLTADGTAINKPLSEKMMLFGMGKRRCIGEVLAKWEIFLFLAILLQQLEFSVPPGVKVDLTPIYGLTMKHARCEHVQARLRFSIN
Chain of CYP2D6 (P10635 whole entry): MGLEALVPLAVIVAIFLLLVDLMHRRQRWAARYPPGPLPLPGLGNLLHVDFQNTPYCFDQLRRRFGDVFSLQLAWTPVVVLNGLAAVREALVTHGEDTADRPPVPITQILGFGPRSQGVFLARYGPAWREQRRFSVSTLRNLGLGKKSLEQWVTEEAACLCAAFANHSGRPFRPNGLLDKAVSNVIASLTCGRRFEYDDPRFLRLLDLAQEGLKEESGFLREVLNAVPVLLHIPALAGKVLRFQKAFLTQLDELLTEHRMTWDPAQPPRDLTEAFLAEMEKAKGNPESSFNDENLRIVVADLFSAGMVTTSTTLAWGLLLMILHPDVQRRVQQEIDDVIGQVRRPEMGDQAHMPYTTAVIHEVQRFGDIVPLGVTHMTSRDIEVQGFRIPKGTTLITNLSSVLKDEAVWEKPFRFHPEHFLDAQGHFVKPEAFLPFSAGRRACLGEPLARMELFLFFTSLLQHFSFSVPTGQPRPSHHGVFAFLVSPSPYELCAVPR
Chain of CYP2C19 (P33261 whole entry): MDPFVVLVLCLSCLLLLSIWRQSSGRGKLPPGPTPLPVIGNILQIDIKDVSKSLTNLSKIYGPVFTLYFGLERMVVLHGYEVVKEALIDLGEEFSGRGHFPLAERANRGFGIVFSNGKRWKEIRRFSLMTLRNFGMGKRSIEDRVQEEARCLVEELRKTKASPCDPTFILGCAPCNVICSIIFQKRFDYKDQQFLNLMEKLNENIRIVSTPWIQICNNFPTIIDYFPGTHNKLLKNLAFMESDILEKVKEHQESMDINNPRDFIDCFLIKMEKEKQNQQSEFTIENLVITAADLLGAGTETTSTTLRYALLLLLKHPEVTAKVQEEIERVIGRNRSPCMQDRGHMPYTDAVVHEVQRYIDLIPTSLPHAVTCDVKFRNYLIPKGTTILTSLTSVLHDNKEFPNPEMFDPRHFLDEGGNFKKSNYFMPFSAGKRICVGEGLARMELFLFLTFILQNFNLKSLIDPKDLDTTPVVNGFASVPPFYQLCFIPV

Broadly, the IC50 is the concentration needed to halve the response being measured. The term bioavailability denotes dose-corrected exposure relative to a reference, in per cent. `CC(C)Oc1ccc(Nc2cc(=O)n(CC(C)(C)C(=O)O)c(=O)n2Cc2ccc(Cl)cc2)cc1F` [I-021] came in with an IC50 at human P2X3 receptor of 0.019 µM. Besides, the bioavailability in data set [1] came out at 49.1%.

In the case of `Cc1cc(Nc2cc(=O)n(C[C@H](C)C(=O)O)c(=O)n2Cc2ccc(Cl)cc2)ccc1OC(C)C` [I-215], the midpoint of inhibition at human P2X3 receptor, the IC50, lay at 0.024 µM. The bioavailability in data set [1] came to 49.7%.

Take `CC(C)Oc1ccc(Nc2nc(=O)c(C(=O)NC3CCOCC3)cn2Cc2ccc(Cl)cc2)cc1F` [I-241]: the IC50 at CYP2C9 was over 20 µM; against CYP3A4 [3], over 20 µM; at CYP1A2, over 20 µM; against human P2X3 receptor it was 0.031 µM; on CYP2D6, over 20 µM; at CYP2C19 it was over 20 µM. In addition, the remaining rate in data set [2] was 88%.

The compound `Cc1nc2ccc(Nc3nc(=O)c(C(=O)NC4CCOCC4)cn3Cc3ccc(Cl)cc3)cc2s1` [I-286] returned a concentration for half-maximal inhibition (IC50) against human P2X3 receptor of 0.008 µM. The bioavailability in data set [1] came out at 41.7%.

What is called solubility is how much of the substance goes into solution per volume. On to `O=C(O)c1cncc(Oc2ccc(Nc3ncc(NC(=O)C4CCOCC4)c(=O)n3Cc3ccc(Cl)cc3)cc2)c1` [I-305], for which the IC50 at CYP2C9 is over 20 µM; on CYP3A4 [3] it was over 20 µM; on CYP1A2, over 20 µM; on human P2X3 receptor, 0.004 µM; against CYP2D6 it was over 20 µM; on CYP2C19, over 20 µM. The solubility at 16 h in the data set “Solubility test” was over 50 µM. This compound also displayed an IC50 difference against CYP3A4 [4] of under 3 µM.

As to `Cc1ncc(Oc2ccc(Nc3ncc(NC(=O)C4CCOCC4)c(=O)n3Cc3ccc(Cl)cc3)cc2)cc1F` [I-313], 0.003 µM corresponded to half-maximal inhibition against human P2X3 receptor (IC50). The bioavailability in [1] was determined as 28.5%.

For the compound `CCn1c(=O)cc(Nc2ccc(Oc3cncc(C(=O)O)c3)cc2)n(Cc2ccc(Cl)cc2)c1=O` [I-315], in data set [2], the remaining rate came out at 105%. The midpoint of inhibition against human P2X3 receptor, the IC50, lay at 0.006 µM. Moreover, the IC50 difference against CYP3A4 [4] is under 3 µM.

Turning to `Cc1nc2ccc(Nc3cc(=O)n(CCCC(=O)O)c(=O)n3Cc3ccc(Cl)cc3)cc2s1` [I-354], the half-maximal inhibitory concentration (IC50) against CYP2C9 is over 20 µM; at CYP3A4 [3], over 20 µM; against CYP1A2, over 20 µM; against human P2X3 receptor it was 0.094 µM; at CYP2D6, over 20 µM; against CYP2C19, over 20 µM. The compound also came in with an IC50 difference against CYP3A4 [4] of under 3 µM.

On to `O=C(O)c1cccc(Oc2ccc(Nc3ncc(NC(=O)C4CCOCC4)c(=O)n3Cc3ccc(Cl)cc3)cc2)c1` [I-359], for which the remaining rate in data set [2] is listed as 101%. On human P2X3 receptor, this compound yielded an IC50 of 0.002 µM. At CYP3A4 [4], this compound yielded an IC50 difference of under 3 µM.
